Experimental data taken from PubChem BioAssay AID624285 (Broad Institute, 2012).
Active and inactive are the calls of the source.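 Rule for the calls: active = signal-decreasing dose-response curve whose fitted half-maximal concentration is at or below twice the highest valid tested dose; inconclusive = flat fit at 30 to 70% signal loss, or poor fit; inactive = the rest.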

Experiment: cytotoxicity in mammalian cells, dose response, cytotoxicity control for PDI inhibitor project, cell-based, 24 h, luminescence, cherry-picked samples (AID 624285)
Settings: NIH3T3/HeLa viability, CellTiter-Glo ATP luminescence, 24 h; at 35 µM (top of the series)

O=C1/C(=C\c2ccc(O)cc2)CCC1CNc1ccc(Cl)cc1 (stereo not given)
activity change, negative = cytotoxicity: -7.39% (inactive)

O=C(Nc1ccccc1)c1cc(C2CCCCN2C(=O)c2ccccc2)on1 (stereo not given)
activity change, negative = cytotoxicity: -15.5% (inactive)

CCOC(=O)C1(C)CCCN(C(=O)c2cccc(Cl)c2)C1 (stereo not given)
activity change, negative = cytotoxicity: -5.27% (inactive)

CCC(=O)Nc1ccc(-c2cc3ccccc3oc2=O)cc1
activity change, negative = cytotoxicity: -7.54% (inactive)

Cc1[nH]c2ccc(C(=O)NC3CCCC3)cc2c1C
activity change, negative = cytotoxicity: -3.79% (inactive)

O=C1NC[C@H](Cc2ccccc2)N(C[C@H]2CCCN2C[C@H](Cc2ccc(O)cc2)N2C[C@H](Cc3ccc(O)cc3)N(CC3CCCCCC3)C(=O)C2=O)C1=O
activity change, negative = cytotoxicity: -18.9% (inactive)

O=c1[nH]c(C2CCN(S(=O)(=O)c3ccc(C(F)(F)F)cc3)CC2)nc2c1nnn2Cc1ccc(F)cc1
activity change, negative = cytotoxicity: -22.8% (inactive)

CCS(=O)(=O)c1ccc2oc(SCC(=O)NC(C)C3CC4CCC3C4)nc2c1 (stereo not given)
activity change, negative = cytotoxicity: -13.9% (inactive)

Cc1nc(C(=O)Nc2cccc(Cl)c2Cl)nn1-c1cc(OC(C)C)c(Cl)cc1Cl
activity change, negative = cytotoxicity: -11.1% (inactive)

CC1(C)CC[C@]2(C(=O)O)CC[C@]3(C)C(=CC[C@@H]4[C@@]5(C)CC[C@H](O[C@@H]6O[C@H](C(=O)O)[C@@H](O)[C@H](O[C@@H]7OC[C@H](O)[C@H](O)[C@H]7O)[C@H]6O)C(C)(C)[C@@H]5CC[C@]43C)[C@@H]2C1
activity change, negative = cytotoxicity: -3.34% (inactive)

O=C(O)C1C(c2ccccc2)C(C(=O)Oc2ccc(O)cc2)C1c1ccccc1 (stereo not given)
activity change, negative = cytotoxicity: -8.75% (inactive)

CCCCC1CCC(c2nc(-c3ccccn3)no2)CC1 (stereo not given)
activity change, negative = cytotoxicity: -12.5% (inactive)

S=C(NCCN1CCOCC1)Nc1ccc(Br)cc1
activity change, negative = cytotoxicity: -9.3% (inactive)

COc1cccc(NC(=O)CN(C)C(=O)/C=C/c2cc(OC)ccc2OC)c1
activity change, negative = cytotoxicity: -4.31% (inactive)

O=C(NCc1ccccn1)Nc1cccc(Cl)c1
activity change, negative = cytotoxicity: -8.23% (inactive)

C[C@H](CO)N1C[C@H](C)[C@H](CN(C)Cc2ccccc2)Oc2ccc(NC(=O)Nc3ccccc3)cc2CC1=O
activity change, negative = cytotoxicity: -11.2% (inactive)

CCN1CC2(COC(=O)c3ccccc3N)CCC(OC)C34C5CC6C(OC)CC(O)(C5C6OC)C(O)(C(OC)C23)C14 (stereo not given)
activity change, negative = cytotoxicity: -11.8% (inactive)

O=C(Cn1nnc2ccccc21)OCC(=O)c1ccccc1
activity change, negative = cytotoxicity: -11.3% (inactive)

O=C(OCc1ccc(-c2ccccc2)cc1)c1cccc(O)c1
activity change, negative = cytotoxicity: -8.38% (inactive)

O=C(NCCN1CCOCC1)c1cccnc1SCc1ccccc1Cl
activity change, negative = cytotoxicity: -5.22% (inactive)

C[C@H]1CN([C@@H](C)CO)C(=O)c2cccc(NS(C)(=O)=O)c2O[C@@H]1CN(C)Cc1ccc(Oc2ccccc2)cc1
activity change, negative = cytotoxicity: -9.08% (inactive)

CCOC(=O)c1c(CN2CCN(CCO)CC2)n(C)c2cc(Br)c(OC)cc12
activity change, negative = cytotoxicity: -17.2% (inactive)

O=c1c(O[C@H]2O[C@@H](CO)[C@H](O)[C@@H](O)[C@@H]2O)c(-c2ccc(O)cc2)oc2cc(O)cc(O)c12
activity change, negative = cytotoxicity: -3.13% (inactive)

O=C(CCc1ccc(O)cc1)NN=Cc1cc(Br)ccc1O
activity change, negative = cytotoxicity: -12.9% (inactive)

CN1CCN(C(=O)CSc2nnc(COc3ccc(Cl)cc3)o2)CC1
activity change, negative = cytotoxicity: -3.96% (inactive)

CCOc1ccc(NC(=O)CN(C)C(=O)c2cc(C)nc3ccccc23)cc1OCC
activity change, negative = cytotoxicity: -13.4% (inactive)

FC(F)(F)c1cccc(NC(=S)NCc2ccccn2)c1
activity change, negative = cytotoxicity: -2.29% (inactive)

COc1ccc(CCNC(=O)c2cc(S(=O)(=O)N(C)C)ccc2N2CCCC2)cc1
activity change, negative = cytotoxicity: -14.6% (inactive)

Cc1noc(C)c1S(=O)(=O)Nc1ccc2c(c1)CC(=O)N([C@H](C)CO)C[C@@H](C)[C@H](CN(C)S(=O)(=O)c1ccc(F)cc1)O2
activity change, negative = cytotoxicity: 4.61% (inactive)

O=C(Nc1cccc(S(=O)(=O)Nc2ccc(SC(F)F)cc2)c1)C1CCC1
activity change, negative = cytotoxicity: -13.1% (inactive)
